# Like-named read-outs stand apart in the source and are kept apart here.
# Columns and labels:
# CHO-HBS cells [1] = experiment: Batch CHO cell process in 3 L bioreactors with gaseous or dissolved candidate Additives (VCD, antibody titer, qP); format: cell-based, Chinese hamster; settings: vs control; for impact on protein biomolecule production or cell growth: gas sparged into 3 L batch cultures; for antibody titer / viable cell density (VCD) / cell growth / calculated specific cellular productivity (qP): 3 L batch cultures
# Method: The following candidate gaseous and chemical additives were screened using a batch CHO cell process in a 3 L (2 L working volume) bioreactors. CHO-HBS cells were cultured in CDM4MAb media (HyClone Labaratories; Logan Utah; custom part containing base media cat# SH30801.02 supplemented with an additional 0.5 g/L poloxamer 188) in vented, plain-bottom Erlenmeyer flasks at 3-30×10^5 cells/mL. The cells were cultured for 14-16 days and then inoculated into 3 L semi-batch bioreactors at 3-4×10^5 cells/mL with 2 L working volumes. The bioreactor system monitored and controlled temperature, pH, % CO2, %02, sparge rate, and aeration rate. The bioreactors maintained a sparge rate of 0.1 vvm, 40% DO, and a pH value of 7.10. The pH was controlled by addition of CO2 or 1 N sodium bicarbonate solution. Additionally, 1 M glucose was added and adjusted daily to allow for a glucose consumption rate of 3 g/L/day. Each bioreactor was sampled daily (3-4 mL removed/day) for analysis. Gaseous additives were injected into the bioreactors using the following methods: • Inert Gas Injection (xenon): The bioreactor system controlled the flowrate and composition of oxygen, carbon dioxide, air, and nitrogen that was sparged into each bioreactor. The mixture composition was determined by the dissolved oxygen and pH levels in each reactor. House gas lines for these four gases were filtered and fed into the bioreactor mass flow control system. The effects of xenon were tested by replacing the nitrogen house gas feed with a cylinder containing xenon and replacing the air gas feed with a cylinder containing 21% oxygen and 79% xenon respectively. The system was calibrated for controlling the flowrate of the replacement gas by measuring the bioreactor mass flow controller flowrate for each gas at 12slph using a film flowmeter, then adjusting the gas correction factor for the bioreactor nitrogen or air mass flow controller until the flowrate on the film flowmeter and bioreactor system were the same. […] This allowed the CHO cells to be cultured with the maximum quantity of inert gas. • Reactive Gas Injection (nitric oxide, carbon monoxide, or hydrogen): The bioreactor module controlled the composition and flow of oxygen, air, nitrogen, and carbon dioxide gases as described previously. Reactive gases including nitric oxide, carbon monoxide, or hydrogen were introduced into the gas stream through a tee line connection before the gas mixture entered the bioreactors. The reactive gas flowrate was controlled using a mass flow controller and the flowrate of the bioreactor controlled mixture was adjusted to maintain the total gas flowrate into each reactor at 12slph.
# HO-1 = HO-1 expression in shake flask cultures; format: cell-based, Chinese hamster; settings: shake flasks, vs control
# Method: (§1) Cells were grown in CDM4MAb medium supplemented with poloxamer-188. Flasks were incubated on a shaker at 125 rpm in a humidified incubator at 37° C. and 5% CO2. DETA-NO was dissolved in 0.01 M sodium hydroxide solution at a 0.2 M concentration. Aliquots of DETA-NO solution were added daily to cell cultures to reach a final concentration of 0.09, 0.18 or 0.36 mM DETA-NO. Sodium hydroxide solution (0.01M) was added daily as a negative control. 0.01-1.0 mM DETA-NO release NO at a rate in the low nM/sec range (Bouton, C. and Demple, B., 2000. Nitric oxide-inducible expression of heme oxygenase-1 in human cells translation-independent stabilization of the mRNA and evidence for direct action of nitric oxide. Journal of Biological Chemistry, 275(42), pp. 32688-32693).
# (§2) The effects of gaseous NO were partially recapitulated by adding NO-releasing compound DETA-NO daily to cell cultures in shake flasks. Cell growth and viability followed similar trends with addition of DETA-NO as with gaseous NO.
# [2] = cited from earlier work
# CHO-HBS cells [3] = experiment: DETA-NO added daily to shake flask cultures (cell growth, viability); format: cell-based, Chinese hamster; settings: shake flasks
# Method: as §1, §2
# Caspase-3 = target: T1, Caspase-3 (Cricetulus griseus, UniProt Q6JH80); experiment: Caspase-3 activity (EnzCheck Caspase-3 Assay Kit #1) in 3 L cultures; format: cell-based, Chinese hamster; settings: 3 L cultures ± NO 300 ppm, same number of viable cells
# T1 construct: endogenous in cells; host or cells: CHO-HBS cells (CHO DG44 derived), 3 L bioreactor cultures
# T1 sequence (Q6JH80 29-175 limits assumed): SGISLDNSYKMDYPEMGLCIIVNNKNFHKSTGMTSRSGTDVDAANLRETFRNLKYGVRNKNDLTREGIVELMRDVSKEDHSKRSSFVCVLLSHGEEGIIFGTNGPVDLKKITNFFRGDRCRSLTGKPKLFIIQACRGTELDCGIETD
# T1 sequence (Q6JH80 176-277 limits assumed): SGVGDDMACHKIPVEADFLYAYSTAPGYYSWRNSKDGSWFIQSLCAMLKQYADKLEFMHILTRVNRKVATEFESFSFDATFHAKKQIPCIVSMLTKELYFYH
# Source text: The NO-specific extension of viability correlates with a decrease in Caspase-3 activity (FIG. 20). Capase-3 activity was monitored with an EnzCheck Caspase-3 Assay Kit #1 (Thermo Fisher Scientific) using samples containing the same number of viable cells. All caspase proteases contain a single cystein at the enzyme catalytic site that is essential for activity. […] Thus, the observed lower caspase-3 activity may be due to a specific blockage of the catalytic cysteine residue through formation of nitrosylthiols.
# [4] = Antibody assembly by SDS-PAGE (non-reducing / reducing); format: physicochemical; settings: NO-sparged vs control
# Source text: In the absence of reducing agents, the pool of IgGs consists of three structures: fully assembled IgGs, IgGs missing one light chain, and IgGs missing two light chains. Variations in the proportion of the three structures depend on the production process and intrinsic properties of the IgG molecules. […] In the presence of reducing agents, the three structures collapsed into two forms of approximately 52 and 26 kDa, corresponding to the heavy and light chains, respectively. No major differences were detected between antibodies produced in NO-sparged reactors compared to controls. Byproducts with an apparent molecular mass of 25 kDa were detected on day 10. These species, which might be degradation products of light chains, seemed to be an intrinsic feature of HBS antibodies independent from the NO-based process.
# Heme Oxygenase 1 (HO-1) = experiment: HO-1 expression in 3 L cultures (RNA-seq, Western blot); format: cell-based, Chinese hamster; settings: 3 L cultures exposed to the gas, vs control
# Method: (§3) Gene expression profiles were captured using RNA-seq. Conesa A, Madrigal P, Tarazona S, et al. A survey of best practices for RNA-seq data analysis. Genome Biology. 2016; 17:13. doi:10.1186/s13059-016-0881-8. RNA was extracted with a RNeasy Plus Mini kit (Qiagen) and quantified by absorbance at 260 nm with a NanoDrop 2000 (Thermo Fisher Scientific). The RNA quality was assessed using a RNA 6000 Nano Kit (Agilent) and a Bioanalyzer (Agilent). RNA was fragmented and libraries were prepared using commercial kits (TruSeq RNA Library Prep Kit v2, Illumina). RNA was sequenced on a HiSeq 2500 (Illumina) at the DNA Sequencing & Genotyping Center of the University of Delaware. Data were analyzed at the Bioinformatics Core Facility, Center for Bioinformatics and Computational Biology of the University of Delaware. As the specific genome sequence of the CHO DG44 line was not available, a Chinese Hamster genome draft was used as a reference. Genes with differential expression (false discovery rate <0.001) were further analyzed with DAVID 6.8 (https://david.ncifcrf.gov/), STRING 10.0 (http://string-db.org/) and iProXpress (http://pir.georgetown.edu/iproxpress2/).
# Exemplary transcript profiles of cells on days 1, 3 and 5 of 3 L cell cultures were generated between control and gaseous NO treated cultures to perform differential gene expression analysis (FIG. 16). […]
# [5] = Glycosylation analysis (released glycans, HILIC); format: physicochemical; settings: CHO-HBS cells treated with 300 ppm NO vs control
# Source text: Glycans were enzymatically released from purified IgGs, labeled with a fluorescent dye, and separated by hydrophilic interaction liquid chromatography (GlycoWorks RapiFluor-MS N-Glycan Kit, Waters). Glycans of IgGs purified from CHO-HBS cells were consistent with the typical patterns reported in the literature for proteins expressed in CHO cells. A heterogeneous population of glycans with high proportion of GOF structure followed by G1F and G2F was observed (FIG. 26).
# [6] = test system: glutathione-related enzymes (S-transferase proteins, catalases, oxidation resistance genes); experiment: Expression of glutathione-related enzymes in 3 L cultures (RNA-seq, Western blot); format: cell-based, Chinese hamster; settings: gaseous NO vs control
# Method: as §3
# NO can oxidize intracellular molecules and thereby change the antioxidant levels within the cell, resulting in oxidative stress that potentially leads to membrane dysfunction, DNA damage and inactivation of proteins. […]
smiles,measurement,setting,value
[Ar] [Argon],impact on protein biomolecule production or cell growth,CHO-HBS cells [1],did not significantly affect
[HH] [Hydrogen],impact on protein biomolecule production or cell growth,CHO-HBS cells [1],do not have a significant impact
"O=NO [Nitrite, Sodium Nitrite]",HO-1 expression (oxidative stress response),HO-1,does not activate
same,antibody titer,CHO-HBS cells [1],no significant impact
same,viable cell density (VCD) / cell growth,CHO-HBS cells [1],at most a small effect on VCD in the late phase of culture
CNCCCCCCN(C)/[N+]([O-])=N/O [MAHMA NONOate],half-life,"[2]; 37° C., pH 7.4",1 min
CC(C)N(CCCN)/[N+]([O-])=N/O [NOC-5],half-life,"[2]; PBS (pH 7.4), 22° C.",93 min
"NCCN(CCN)/[N+]([O-])=N/O [DETA-NO, diethylenetriamine-nitric oxide adduct]",half-life,"[2]; 37° C., pH 7.4",1200 min
same,viable cell counts,"CHO-HBS cells [3]; daily addition, relative to control cultures",lower at the stationary phase but increased in the late phase of the culture
same,cell death,CHO-HBS cells [3]; higher concentrations tested,increased cell death
same,HO-1 expression (oxidative stress response),HO-1,HO-1 up regulation
[O-]/[N+](=N\O[C@@H]1O[C@H](CO)[C@H](O)[C@H](O)[C@H]1O)N1CCCC1 [β-Gal-NO],half-life,"[2]; pH 5.6, following activation by β-galactosidase",six
[N]=O [Nitric Oxide],Caspase-3 activity,Caspase-3,decrease
same,overall IgG structure,[4],did not seem to impact
same,expression of HO-1 (oxidative stress response),Heme Oxygenase 1 (HO-1),induces expression
same,fucosylated glycans of IgGs,[5],minor reduction
same,expression of glutathione-related enzymes,[6],stimulates expression
same,calculated specific cellular productivity (qP),CHO-HBS cells [1],boosted qP
same,viable cell density (VCD) / cell growth,CHO-HBS cells [1],shifted the cell culture VCD profile
"O=[N+]([O-])[O-].[Na+] [Nitrate, Sodium Nitrate]",antibody titer,CHO-HBS cells [1],no effect
same,viable cell density (VCD) / cell growth,CHO-HBS cells [1],no effect
[O]N=O [Nitrogen Dioxide],antibody titer,CHO-HBS cells [1],strongly negative effect
same,viable cell density (VCD) / cell growth,CHO-HBS cells [1],strongly negative effect
[Xe] [Xenon],impact on protein biomolecule production or cell growth,CHO-HBS cells [1],do not have a significant impact
[Kr] [Krypton],impact on protein biomolecule production or cell growth,CHO-HBS cells [1],did not significantly affect
CCCN(CCCN)/[N+]([O-])=N/O [PAPA NONOate],half-life,"[2]; 37° C., pH 7.4",15 min
[C-]#[O+] [Carbon Monoxide],expression of HO-1 (oxidative stress response),Heme Oxygenase 1 (HO-1),did not lead to an increase
same,antibody titer,CHO-HBS cells [1],less impacted
same,calculated specific cellular productivity (qP),CHO-HBS cells [1],higher than control
same,viable cell density (VCD) / cell growth,CHO-HBS cells [1],"suppressed during the growth phase, but shows higher VCD at the end of the culturing period"
same,overall yield from batch culture,CHO-HBS cells [1]; net effect of VCD to qP,overall smaller yield
CCN(CC)/[N+]([O-])=N/O.CCNCC [DEA-NO],half-life,"[2]; buffer, pH 7.4",2 min

# — patent US10280217B2, “Cell culture additives and their use for increased bioprotein production from cells” (priority 2017, dated 2019)
